Measurements: ChEMBL document CHEMBL3507680, “University of Dundee, Gates Library screen for HepG2 cell viability”

Experiment: Human HepG2 cell viability assay in 384 well format
Format: toxicity, cell-based
Design: dose 125 nL, time 70.5 hour; cytotoxicity at 70.5 h: concentration not given beside the values
Settings: HepG2 cells, read-out: Inhibition

Structure (SMILES)	cytotoxicity at 70.5 h
CS(=O)(=O)N[C@@H]1CCN(Cc2cccnc2)[C@H]1Cc1cccnc1	13.6%
COCCN1CCN(Cc2cccc(C(=O)N(C)C)c2)CC1C (stereo not given)	14.5%
CC(C)c1noc(C(C)N2CCN(Cc3nnc(C4CC4)o3)CC2)n1 (stereo not given)	-3.65%
O=S(=O)(c1ccccc1)N1CCC2(CCCN2Cc2ccc(Cl)cc2)C1 (stereo not given)	-7.11%
OCCOCCN1CCCC1c1cccc(Cl)c1 (stereo not given)	-3.17%
Cn1ncc2c1C(COCC1CC1)CN(Cc1nccs1)C2 (stereo not given)	6.16%
Cc1[nH]nc(CCC(=O)N2CCc3c(nc[nH]c3=O)C2)c1C	-15.9%
CCCC1CCCN(C(=O)Nc2ccnc(C(=O)N(C)C)c2)CC1 (stereo not given)	-6.22%
CC1CCN(C(=O)c2ccn(COc3ccc(F)cc3)n2)CC1	-6.36%
CNC(=O)Cc1ccccc1NC(=O)N[C@H]1c2ccccc2C[C@H]1O	-13.7%
CC(=O)c1ccc(NCc2cc3n(n2)CCCN(S(C)(=O)=O)C3)nc1	-1.18%
CNc1nc(C)c(C(=O)N2CCCCC2CCc2ccccc2)s1 (stereo not given)	-5.18%
CCCc1nnc(N2CC[C@](C)(O)[C@H](C)C2)s1	8.74%
Cn1nc2c(cc1=O)CN(Cc1nnc(-c3ccc(F)cc3)o1)CC2	-22.9%
CCN1CCN(C(=O)c2cc(-c3cccn3C)n[nH]2)[C@H]2CS(=O)(=O)C[C@H]21	-18.3%
CC(C)CN1CC(c2nc(-c3ccsc3)c[nH]2)CC1=O (stereo not given)	-2.45%
CC(C)N1CCCC(CNC(=O)CN(C)S(=O)(=O)c2ccccc2)C1 (stereo not given)	-5.65%
CC(O)CN1CCN(C(=O)c2ccn(-c3ccc(F)cc3)n2)CC1 (stereo not given)	-3.45%
COC1CCN(C(=O)Cn2ccc3ccccc32)CC1	-3.16%
CCCNC(=O)N1CCC(c2nnc(Cn3cccn3)n2C2CC2)CC1	-10.5%
Cc1ncsc1CCN(C)C(=O)CN1CC2(CCCC2)CC1=O	-15%
CS(=O)(=O)N1CCOCC2(CN(Cc3ccccn3)CCO2)C1 (stereo not given)	-5.98%
CCn1ccnc1CN1CCCN(C(=O)c2cccn2C)CC1	23.9%

Structure (SMILES)	cytotoxicity at 70.5 h
COCCN1C[C@@H]2CN(c3cnccn3)C[C@@H]2C1=O	-10.9%
Cc1cc(S(=O)(=O)N2CCCc3cc(F)c(F)cc32)sc1C(=O)O	-1.45%
COCc1nc2cc(NCc3csc(C)n3)ccc2o1	3.55%
COc1ccccc1NC(=O)Cc1c(C)nc2c(c1C)c(=O)[nH]n2C	-3.59%
CCN(c1ccc(C(=O)N2CCCC2)cc1)S(=O)(=O)CC	-10.8%
COc1cc(Cl)ccc1CNC(=O)N1CCC(n2cncn2)CC1	0.114%
CSCC(=O)N1CCc2nc(C)nc(NCc3ccccc3)c2CC1	-5.43%
N#CCCCS(=O)(=O)NC(=O)c1cccc(Cl)c1F	-2.7%
CC(C)c1nnc(CN2CCCC(c3cc(C(N)=O)[nH]n3)C2)o1 (stereo not given)	26.9%
COCCCNC(=O)NCc1nc(C)c(C)o1	-7.01%
CCN1CCC(NC(=O)CN2CCCCC2Cn2cccn2)CC1 (stereo not given)	-4.33%
CN(CC1CCCCO1)C(=O)c1ccnc(OC2CCC2)c1 (stereo not given)	-5.26%
N#Cc1cccc(CNCCNC(=O)Cc2cccc(F)c2)c1	26.7%
O=C(NCCOc1ccc(Cl)cn1)Nc1nccs1	11%
CCCc1nnc(NCCn2nc(C)c(Cl)c2C)o1	-7.4%
O=C(C1CCOCC1)N(CCc1ccccc1)C1CCOC1 (stereo not given)	8.62%
CCCc1nnc2sc(-c3cc(C(C)C)n[nH]3)nn12	15.4%
COCCO[C@H]1CCN(C(=O)c2ccc[nH]2)[C@H]1Cc1ccncc1	-3.06%
Cn1cccc1C(=O)NCc1cnc2n1CCN(CC1CC1)C2	3.59%
CN(C)CCn1c2c(ccc1=O)CC(NC(=O)c1cnccn1)CC2 (stereo not given)	-10.4%
COc1c(CNCc2ccc(Cn3cccn3)cc2)c(C)nn1C	3.44%
O=C(NCc1cccnc1)[C@H]1CN2CCC1C[C@@H]2Cn1cc(CO)nn1 (stereo not given in full)	-6.61%
